# Measurements reported in PMC11855827, “High-Throughput Screening of Five Compound Libraries for Anthelmintic Activity and Toxicity Leads to the Discovery of Two Flavonoid Compounds” (International Journal of Molecular Sciences, 2025).
# Read-outs that look alike come from different tables or passages of the source.
# Test system: C. elegans
# Assay: microbe, parasite or virus in culture
# Conditions: Caenorhabditis elegans
# [1] = 0 h, read-out: Percentage of motility inhibition 0 h, Table S2, C. elegans SS assay, 110 μM, 0 h, averages of 4 data points
# [2] = 24 h, read-out: Percentage of motility inhibition 24 h, Table S2, C. elegans SS assay, 110 μM, 24 h, averages of 4 data points
# [3] = 0 h, read-out: Percentage of motility inhibition 0 h
# [4] = 24 h, read-out: Percentage of motility inhibition 24 h
Compound,inhibition at 110 µM [1],inhibition at 110 µM [2],inhibition at 110 µM [3],inhibition at 110 µM [4]
O=c1[nH]c(=O)n([C@H]2C[C@H](O)[C@@H](CO)O2)cc1I [Idoxuridine],38%,11%,–,–
C=CCOC(Cn1ccnc1)c1ccc(Cl)cc1Cl (stereo not drawn) [Imazalil],35%,36%,–,–
O=C(NCNC(=O)NC1C(=O)NC(=O)N1CO)NC1C(=O)NC(=O)N1CO (stereo not drawn) [Imidazolidinyl urea],28%,10%,–,–
O=C(O)CNCC(=O)O [Iminodiacetic acid],15%,0%,–,–
C/C1=C\C[C@]2(C(C)C)CC[C@@](C)(O2)[C@@H](O)CC/C(C)=C/CC1 [Incensole],2%,29%,–,–
O=C1Nc2ccccc2/C1=C1/Nc2ccccc2C1=O [Indirubin],–,6%,–,–
c1ccc2[nH]ccc2c1 [Indole],–,–,13%,9%
NC(=O)Cc1c[nH]c2ccccc12 [Indole‐3‐acetamide],0%,0%,–,–
O=C(O)CCCc1c[nH]c2ccccc12 [Indole‐3‐butyric acid],2%,0%,–,–
OCc1c[nH]c2ccccc12 [Indole‐3‐carbinol],0%,18%,–,–
O=C(O)c1c[nH]c2ccccc12 [Indole‐3‐carboxylic acid],0%,0%,–,–
C/C=C(/C)C(=O)O[C@H]1C(C)=C[C@]23C(=O)[C@@H](C=C(CO)[C@@H](O)[C@]12O)[C@H]1[C@@H](C[C@H]3C)C1(C)C [Ingenol Mebutate],1%,0%,–,–
O=c1[nH]cnc2c1ncn2[C@@H]1O[C@H](CO)[C@@H](O)[C@H]1O [Inosine],34%,10%,–,–
COc1cc(-c2coc3cc(O)c(OC)c(O)c3c2=O)cc(O)c1OC [Irigenin],14%,3%,–,–
COc1cc(-c2coc3cc4c(c(OC)c3c2=O)OCO4)cc(OC)c1OC [Irisflorentin],26%,34%,–,–
COc1ccc(-c2coc3cc(O)c(OC)c(O)c3c2=O)cc1 [Irisolidone],0%,0%,–,–
O=C1Nc2ccccc2C1=O [Isatin],25%,3%,–,–
C[C@@H](c1nc(-c2ccc(C#N)cc2)cs1)[C@](O)(Cn1cncn1)c1cc(F)ccc1F [Isavuconazole],25%,0%,–,–
C=C1C(=O)O[C@@H]2C[C@@]3(C)CCCC(=C)[C@@H]3C[C@H]12 [Isoalantolactone],2%,12%,–,–

Compound,inhibition at 110 µM [1],inhibition at 110 µM [2],inhibition at 110 µM [3],inhibition at 110 µM [4]
CC(C)=CCc1c(O)ccc(C(=O)/C=C/c2ccc(O)cc2)c1O [Isobavachalcone],6%,15%,–,–
C=C[C@H]1CN2CC[C@@]3(C(=O)Nc4ccccc43)[C@@H]2C[C@@H]1/C(=C\OC)C(=O)OC [Isocorynoxeine],0%,0%,–,–
C=C1C[C@]2(O)O[C@@]3(CC2=C(C)C)[C@@H](C)CC[C@@H]13 [Isocurcumenol],5%,24%,–,–
C/C=C(\C)C(=O)O[C@H]1[C@H](O)[C@]2(COC(C)=O)[C@H](O)C[C@]3(C)C(=CC[C@@H]4[C@@]5(C)CC[C@H](O[C@@H]6O[C@H](C(=O)O)[C@@H](O[C@@H]7O[C@H](CO)[C@@H](O)[C@H](O)[C@H]7O)[C@H](O)[C@H]6O[C@@H]6O[C@H](CO)[C@@H](O)[C@H](O)[C@H]6O)[C@](C)(CO)[C@@H]5CC[C@]43C)[C@@H]2CC1(C)C [Isoescin IA],8%,1%,–,–
C/C=C(/C)C(=O)O[C@H]1[C@H](O)[C@]2(COC(C)=O)[C@H](O)C[C@]3(C)C(=CC[C@@H]4[C@@]5(C)CC[C@H](O[C@@H]6O[C@H](C(=O)O)[C@@H](O[C@@H]7O[C@H](CO)[C@@H](O)[C@H](O)[C@H]7O)[C@H](O)[C@H]6O[C@@H]6O[C@H](CO)[C@@H](O)[C@H](O)[C@H]6O)[C@](C)(CO)[C@@H]5CC[C@]43C)[C@@H]2CC1(C)C [Isoescin IB],9%,0%,–,–
COc1ccc(-c2cc(=O)c3c(O)cc(O)c(-c4cc(-c5cc(=O)c6c(O)cc(O)cc6o5)ccc4OC)c3o2)cc1 [Isoginkgetin],17%,19%,–,–
COc1ccc(C[C@@H]2c3cc(Oc4cc(C[C@@H]5c6cc(O)c(OC)cc6CCN5C)ccc4O)c(OC)cc3CCN2C)cc1 [Isoliensinine],–,–,3%,17%
C=C[C@@]1(C)Cc2occ(C)c2[C@@H]2OC(=O)C(=C)[C@@H]21 [Isolinderalactone],13%,9%,–,–
O=C(/C=C/c1ccc(O)cc1)c1ccc(O)cc1O [Isoliquiritigenin],16%,4%,–,–
O=C(/C=C/c1ccc(O[C@@H]2O[C@H](CO)[C@@H](O)[C@H](O)[C@H]2O)cc1)c1ccc(O)cc1O [Isoliquiritin],24%,2%,–,–
NNC(=O)c1ccncc1 [Isoniazid],26%,27%,–,–
O=C(O)c1ccncc1 [Isonicotinic acid],0%,0%,–,–
O=c1cc(-c2ccc(O)c(O)c2)oc2cc(O)c([C@@H]3O[C@H](CO)[C@@H](O)[C@H](O)[C@H]3O)c(O)c12 [Isoorientin],6%,22%,–,–
C=C[C@@]1(C)CC[C@H]2C(=CC[C@@H]3[C@]2(C)CCC[C@@]3(C)C(=O)O)C1 [Isopimaric acid],–,–,0%,14%
O=c1c(O[C@@H]2O[C@H](CO)[C@@H](O)[C@H](O)[C@H]2O)c(-c2ccc(O)c(O)c2)oc2cc(O)cc(O)c12 [Isoquercitrin],31%,2%,–,–
COc1cc(-c2oc3cc(O)cc(O)c3c(=O)c2O)ccc1O [Isorhamnetin],22%,2%,–,–
C[C@@H]1O[C@@H](OC[C@H]2O[C@@H](Oc3cc(O)c4c(=O)cc(-c5ccc(O)cc5)oc4c3)[C@H](O)[C@@H](O)[C@@H]2O)[C@H](O)[C@H](O)[C@H]1O [Isorhoifolin],0%,20%,–,–
CC[C@H]1CN2CC[C@@]3(C(=O)Nc4ccccc43)[C@@H]2C[C@@H]1/C(=C\OC)C(=O)OC [Isorhynchophylline],0%,0%,–,–
C[C@@]12CC[C@@H]3[C@@](CC[C@H]4[C@@]3(C)CCC[C@@]4(C)C(=O)O)(CC1=O)C2 [Isosteviol],0%,2%,–,–

Compound,inhibition at 110 µM [1],inhibition at 110 µM [2],inhibition at 110 µM [3],inhibition at 110 µM [4]
O=c1cc(-c2ccc(O)cc2)oc2cc(O)c([C@@H]3O[C@H](CO)[C@@H](O)[C@H](O)[C@H]3O)c(O)c12 [Isovitexin],11%,6%,–,–
CCC(C)n1ncn(-c2ccc(N3CCN(c4ccc(OCC5COC(Cn6cncn6)(c6ccc(Cl)cc6Cl)O5)cc4)CC3)cc2)c1=O (stereo not drawn) [Itraconazole],18%,22%,–,–
CC1=C2C(=O)[C@H]3[C@@H](CC=C4C[C@@H](O)CC[C@@]43C)[C@@H]2CC[C@]12O[C@@H]1C[C@H](C)CN[C@H]1[C@H]2C [Jervine],0%,33%,–,–
COc1ccc(-c2oc3cc(O)cc(O)c3c(=O)c2O)cc1 [Kaempferide],49%,0%,–,–
C[C@@H]1O[C@@H](Oc2cc(O)c3c(=O)c(O[C@@H]4O[C@@H](C)[C@H](O)[C@@H](O)[C@H]4O)c(-c4ccc(O)cc4)oc3c2)[C@H](O)[C@H](O)[C@H]1O [Kaempferitrin],4%,16%,–,–
O=c1c(O)c(-c2ccc(O)cc2)oc2cc(O)cc(O)c12 [Kaempferol],0%,25%,–,–
C=C(C)[C@H]1CN[C@H](C(=O)O)[C@H]1CC(=O)O [Kainic acid],0%,0%,–,–
C=C1C(=O)[C@@]23[C@H](O)C[C@@H]4C(C)(C)CC[C@H](O)[C@@]4(CO)[C@@H]2CC[C@@H]1[C@H]3O [Kamebakaurin],0%,11%,–,–
C=C1C[C@@]23CC[C@H]4[C@@](C)(CCC[C@@]4(C)C(=O)O)[C@@H]2CC[C@@H]1C3 [Kaurenoic acid],0%,7%,–,–
CC(=O)N1CCN(c2ccc(OCC3COC(Cn4ccnc4)(c4ccc(Cl)cc4Cl)O3)cc2)CC1 (stereo not drawn) [Ketoconazole],13%,0%,–,–
O=C1N[C@@H]2[C@@H](O)[C@@H](O)[C@H](O)[C@@H](CO)N2C1=O [Kifunensine],30%,5%,–,–
C[C@@]1(CO)C[C@@H](O)C[C@@]2(C)[C@@H]3CC[C@](C)([C@@H](O)CO)C=C3CC[C@H]12 [Kirenol],0%,15%,–,–
C=C[C@@]12CN(C)[C@H]3C[C@]14C(=Nc1ccccc14)[C@H]1C[C@@H]2[C@@H]3CO1 [Koumine],16%,18%,–,–
O=C(CCc1ccc(O)c(O)c1)NCCCNCCCCNCCCNC(=O)CCc1ccc(O)c(O)c1 [Kukoamine A],0%,32%,–,–
C=C(C)[C@H](CC=C(C)C)Cc1c(O)cc(OC)c2c1O[C@H](c1ccc(O)cc1O)CC2=O [Kurarinone],0%,0%,–,–
C=C(C)[C@H](CC=C(C)C)Cc1c(O)cc(O)c2c1O[C@H](c1ccccc1O)CC2=O [Kushenol A],14%,10%,–,–
N=C(N)NCCC[C@H](N)C(=O)O [L-Arginine],–,–,0%,0%
O=C1O[C@H]([C@@H](O)CO)C(O)=C1O [L-Ascorbic acid],5%,9%,–,–
